# Source: US5817692A, “Endoperoxides useful as antiparasitic agents” (priority 1996, dated 1998)
# Read-outs that look alike come from different tables or passages of the source.
# Columns and labels:
# P. falciparum NF54 = test: antimalarial activity, P. falciparum NF54 parasites in vitro; format: cell-based; conditions: Plasmodium falciparum
# Protocol: (§1) The protozoan Plasmodium falciparum is a causative agent of malaria, the single most critical infectious disease of mankind. The antimalarial activity of the endoperoxides was determined according to the method of Desjardins et al. (16) as modified by Milhous et al. (17). Briefly, the antimalarial activity of the endoperoxides was tested in a tritiated-hypoxanthine incorporation assay by determining the concentration of the test compound needed to inhibit 50% of the replication of Plasmodium falciparum (IC50) in human red blood cells.
# Tables 4 and 5 show the structures and antimalarial activities of unsaturated and saturated bicyclic [2.2.2] endoperoxides of the invention. Compounds of this formula wherein R and R' are identical are particularly preferred. It is expected that compounds wherein R and R' are selected from the groups [drawing 33] will be especially useful. […]
# Plasmodium falciparum = test: antimalarial activity, tritiated-hypoxanthine incorporation assay in human red blood cells; format: cell-based; conditions: Erythrocyte, read-out: IC50 (inhibition of 50% of the replication of Plasmodium falciparum)
# Protocol: as §1
# It is particularly noted that JHU 2886 has an excellent therapeutic index (ratio of activity to toxicity). At 1 μM, JHU 2886 has a therapeutic index of 70/0, whereas at the same concentration artimisinin has a therapeutic index of 76/10 (7.6), and atovaquone has a therapeutic index of only 95/17 (5.6). […] The first two compounds are known while the following five are being disclosed for the first time. […] Compounds of this formula wherein Ar is p-FCH2 Ph or p-HOCH2 Ph and X is CH2 are also expected to be particularly useful. […]
# [1] = P. falciparum NF54 parasites in vitro, read-out: Antimalarial Activity IC50
# [2] = NF54, read-out: Antimalarial Activity IC50
Compound,IC50 (P. falciparum NF54; [1]),IC50 (Plasmodium falciparum),IC50 (P. falciparum NF54; [2])
"Fc1ccc(C23C=CC(c4ccc(F)cc4)(CC2)OO3)cc1 [R = F, R' = F]",0.07 µM,–,–
"Fc1ccc(C23CCCC(c4ccc(F)cc4)(CC2)OO3)cc1 [Ar = p-FPh, X = CH2]",–,0.038 µM,–
C1=CC2(c3ccccc3)CCCCC1(c1ccccc1)OO2 [n = 4],–,0.41 µM,–
"O=S1(=O)CC2(c3ccccc3)CCC(c3ccccc3)(C1)OO2 [Ar = Ph, X = SO2]",–,> 1 µM,–
"Cc1ccc(C23C=CC(c4ccc(C)cc4)(CC2)OO3)cc1 [R = Me, R' = Me]",0.14 µM,–,–
"Fc1ccc(C23CCCC(c4ccccc4)(CC2)OO3)cc1 (centres unmarked) [Table 6, R = F]",0.042 µM,–,–
"c1ccc(C23CCC(c4ccccc4)(CC4(CCCCC4)C2)OO3)cc1 [Ar = Ph, X = drawing 40]",–,> 1 µM,–
C1=CC2(c3ccccc3)CCC1(c1ccccc1)OO2 [n = 2],0.18 µM,0.15 µM,–
C1=CC2(c3ccccc3)CC1(c1ccccc1)OO2 [n = 1],–,0.65 µM,–
"FC(F)(F)c1ccc(C23CCC(c4ccc(C(F)(F)F)cc4)(CC2)OO3)cc1 [Table 5, R = CF3]",0.082 µM,–,–
"Oc1ccc(C23CCCC(c4ccccc4)(CC2)OO3)cc1 (centres unmarked) [Table 6, R = OH]",> 2.5 µM,–,–
"c1ccc(C23CCC(c4ccccc4)(CC2)OO3)cc1 [Table 5, R = H]",0.21 µM,–,–
"COc1ccc(C23CCCC(c4ccc(OC)cc4)(CC2)OO3)cc1 [Ar = p-MeOPh, X = CH2]",–,0.062 µM,–
"CC1(C)CC2(c3ccccc3)CCC(c3ccccc3)(C1)OO2 [Ar = Ph, X = C(CH3)2]",–,> 1 µM,–
"CC(C)(C)[Si](C)(C)Oc1ccc(C23CCCC(c4ccccc4)(CC2)OO3)cc1 (centres unmarked) [Table 6, R = OSiMe2 Bu-t]",–,–,0.29 µM
"Fc1ccc(C23CCC(c4ccc(F)cc4)(CC2)OO3)cc1 [Table 5, R = F]",0.063 µM,–,–
C1=CC2(c3ccccc3)CCCC1(c1ccccc1)OO2,–,0.15 µM,–
"CC(C)(C)[Si](C)(C)OCc1ccc(C23CCCC(c4ccccc4)(CC2)OO3)cc1 (centres unmarked) [Table 6, R = CH2 OSiMe2 Bu-t]",–,–,0.099 µM
"OCc1ccc(C23CCCC(c4ccccc4)(CC2)OO3)cc1 (centres unmarked) [Table 6, R = CH2 OH]",0.081 µM,–,–
"c1ccc(C23CCCC(c4ccccc4)(CC2)OO3)cc1 [Ar = Ph, X = CH2]",0.089 µM,0.089 µM,–
"Fc1ccc(C23C=CC(c4ccccc4)(CC2)OO3)cc1 (centres unmarked) [R = H, R' = F]",0.071 µM,–,–
